{"source": "ChEMBL document CHEMBL2157946", "about": "“Hydrolytic instability of the important orexin 1 receptor antagonist SB-334867: possible confounding effects on in vivo and in vitro studies” (Bioorg Med Chem Lett, 2012)", "key": {"[1]": {"experiment": "Chemical stability of the compound stored under argon in tightly sealed amber bottle at 15 degC assessed as 1-(2-hydroxy-4-{[(1,5-naphthyridin-4-yl)carbamoyl]amino} phenyl)acetamide formation after 10 months by NMR analysis", "assay_type": "physicochemical", "conditions": "7305 h"}, "[2]": {"experiment": "Chemical stability of the compound stored under argon in tightly sealed amber bottle at 15 degC assessed as 1-(2-hydroxy-4-{[(1,5-naphthyridin-4-yl)carbamoyl]amino} phenyl)acetamide formation after 10 months by mass spectrometry analysis", "assay_type": "physicochemical", "conditions": "7305 h"}, "[3]": {"molecular_target": "T1, Orexin/Hypocretin receptor type 1 (Homo sapiens, UniProt O43613)", "T1 sequence (O43613 whole entry)": "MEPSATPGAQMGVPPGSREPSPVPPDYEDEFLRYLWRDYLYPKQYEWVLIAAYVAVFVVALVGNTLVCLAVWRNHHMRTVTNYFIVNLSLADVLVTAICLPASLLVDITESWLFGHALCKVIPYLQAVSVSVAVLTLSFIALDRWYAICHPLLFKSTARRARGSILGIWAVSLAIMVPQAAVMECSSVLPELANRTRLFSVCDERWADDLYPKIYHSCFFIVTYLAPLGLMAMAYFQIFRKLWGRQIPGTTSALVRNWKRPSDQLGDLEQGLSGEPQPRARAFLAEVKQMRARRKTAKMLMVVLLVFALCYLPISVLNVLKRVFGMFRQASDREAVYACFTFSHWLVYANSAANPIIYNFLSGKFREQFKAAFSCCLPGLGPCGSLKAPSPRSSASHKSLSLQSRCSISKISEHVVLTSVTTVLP", "experiment": "Antagonist activity at OX1 receptor expressed in RD-HGA16 cells assessed as inhibition of orexin A-induced intracellular calcium mobilization after 15 mins by FLIPR assay", "assay_type": "functional, cell-based"}, "Rattus norvegicus [4]": {"tested_on": "Rattus norvegicus", "experiment": "Antagonist activity at OX1 receptor in rat assessed as decrease in alcoholic response at 20 mg/kg, ip after 30 mins", "assay_type": "functional", "set-up": "scale not given: the % may be the effect or the level left", "conditions": "route intraperitoneal"}, "Rattus norvegicus [5]": {"tested_on": "Rattus norvegicus", "experiment": "Antagonist activity at OX1 receptor in rat assessed as decrease in alcoholic response at 5 mg/kg, ip", "assay_type": "functional", "set-up": "scale not given: the % may be the effect or the level left", "conditions": "route intraperitoneal"}, "[6]": {"experiment": "Chemical stability of the compound as refrigerated solution in 100 % DMSO stored in teflon sealed container up to 3 months by NMR analysis", "assay_type": "physicochemical"}, "[7]": {"experiment": "Solubility of the compound in DMSO at 7.5 mg at room temperature after 15 mins by sonication method in presence of encapsin", "assay_type": "physicochemical", "conditions": "in vivo, 0.25 h"}, "[8]": {"experiment": "Solubility of the compound in ACSF at 1.6 mg at room temperature after 45 mins by sonication method", "assay_type": "physicochemical", "conditions": "in vivo, 0.75 h"}}, "data": [{"smiles": "Cc1nc2ccc(NC(=O)Nc3ccnc4cccnc34)cc2o1.Cl", "values": [{"measurement": "Stability", "setting": "[1]", "value": "Unstable"}, {"measurement": "Stability", "setting": "[2]", "value": "Unstable"}]}, {"smiles": "CC(=O)Nc1ccc(NC(=O)Nc2ccnc3cccnc23)cc1O", "values": [{"measurement": "IC50", "setting": "[3]", "value": "> 30", "unit": "µM"}]}, {"smiles": "Cc1nc2ccc(NC(=O)Nc3ccnc4cccnc34)cc2o1", "values": [{"measurement": "Activity", "setting": "Rattus norvegicus [4]", "value": 50, "unit": "%"}, {"measurement": "Activity", "setting": "Rattus norvegicus [5]", "value": 75, "unit": "%"}, {"measurement": "Stability", "setting": "[6]", "value": "Stable"}, {"measurement": "solubility", "setting": "[7]", "value": "Insoluble"}, {"measurement": "solubility", "setting": "[8]", "value": "Insoluble"}]}]}
